# Measured values from US7064139B2, “Method for treating retroviral infections” (Uniroyal Chemical Company, Inc., priority 2001, dated 2006).
# Where two headings read alike, the source gives them in different places.
# What was measured:
# HIV-2 (ROD) = assay: Inhibition of HIV-2 syncytium formation in CEM cells; format: cell-based; conditions: for HIV-2 % Protection: protection of CEM cells against virus-induced cytopathicity at the concentration in the previous column; for EC50: Human immunodeficiency virus 2, CCRF-CEM, read-out: EC50 (ug/ml) HIV-2
# Outline: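 Human T-lymphoblast CEM cells, suspended at roughly 300,000 cells per ml of culture medium, were infected with about 100 CCID50 of HIV-2 (ROD). Aliquots of 100 μl of infected cells were placed in 200 μl microtiter wells holding 100 μl of serial 5-fold compound dilutions, and syncytium formation was scored microscopically four days after infection.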
# Davis strain CMV = assay: Reduction of CMV-induced cytopathicity in HEL cells; format: cell-based, human cytomegalovirus (HCMV); conditions: for Antiviral % Inhibition Davis strain CMV: estimate of percent protection at the concentration in the previous column; for EC50: read-out: Antiviral EC50 (ug/ml) Davis strain CMV
# Outline: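 Confluent HEL cells were infected with 100 PFU/well CMV for 1–2 h, then washed and kept in MEM with 2% FCS and test compound. EC50 is the concentration cutting virus-induced cytopathicity by 50% versus untreated control at day 7. Where cytotoxicity interfered, percent protection at the stated concentration is given.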
# HIV-1 (IIIB) = assay: microbe, parasite or virus in culture; format: cell-based; conditions: for HIV-1 % Protection: protection of CEM cells against virus-induced cytopathicity at the concentration in the previous column; for EC50: Human immunodeficiency virus 1, IIIB, CCRF-CEM, read-out: EC50 (ug/ml) HIV-1
# Outline: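 Human T-lymphoblast CEM cells at roughly 300,000 cells per ml were infected with about 100 CCID50 of HIV-1 (IIIB). Then 100 μl of the infected suspension went into 200 μl microtiter wells holding 100 μl of 5-fold serial compound dilutions. Inhibition of syncytium formation was scored microscopically on day four post infection, and protection against virus-induced cytopathicity was recorded.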
# [1] = CEM cells, syncytium formation, day four post infection
# [2] = HEL cells, virus-induced cytopathicity after seven days
# [3] = Human betaherpesvirus 5, 168 h, HEL cells, virus-induced cytopathicity after seven days
SMILES,EC50 (ug/ml) HIV-2 (HIV-2 (ROD); [1]),Antiviral EC50 (ug/ml) Davis strain CMV (Davis strain CMV; [2]) [µg/mL],EC50 (ug/ml) HIV-1 (HIV-1 (IIIB); [1]),EC50 (HIV-2 (ROD); [1]) [µg/mL],EC50 (Davis strain CMV; [3]) [µg/mL],EC50 (HIV-1 (IIIB); [1]) [µg/mL],HIV-2 % Protection (HIV-2 (ROD)) [%],Antiviral % Inhibition Davis strain CMV (Davis strain CMV; HEL cells) [%],HIV-1 % Protection (HIV-1 (IIIB)) [%],EC50 (HIV-2 (ROD)) [µg/mL],"EC50 (Davis strain CMV; Human betaherpesvirus 5, HEL, 168 h) [µg/mL]",EC50 (HIV-1 (IIIB)) [µg/mL]
Cc1ccc(C)c(CS(=O)(=O)c2cccc[n+]2[O-])c1C [Compound 41],4.7 µg/mL,8.6,5.00 µg/mL,–,–,–,–,–,–,–,–,–
O=S(=O)(Cc1ccccc1F)c1cccc[n+]1[O-] [Compound 22],6.3 µg/mL,7.0,12.00 µg/mL,–,–,–,–,–,–,–,–,–
O=S(=O)(Cc1ccccc1Oc1ccccc1)c1cccc[n+]1[O-] [Compound 56],4.7 µg/mL,>5,5.30 µg/mL,–,–,–,–,20.0,–,–,–,–
COc1ccc(CS(=O)(=O)c2cccc[n+]2[O-])cc1 [Compound 19],14.0 µg/mL,20.0,≧20 ug/ml,–,–,–,–,–,37.5,–,–,–
O=S(=O)(Cc1c(Cl)ccc(Cl)c1Cl)c1cccc[n+]1[O-] [Compound 33],≧4 ug/ml,5.0,≧4 ug/ml,–,–,–,37.5,–,37.5,–,–,–
O=S(=O)(Cc1ccc(F)cc1)c1cccc[n+]1[O-] [Compound 29],7.0 µg/mL,>20,11.00 µg/mL,–,–,–,–,10.0,–,–,–,–
"CCCCCCCC(c1cc(C)ccc1C)S(=O)(=O)c1cccc[n+]1[O-] (centres unmarked) [Compound 7, 2-[1-(2,5-Dimethylphenyl)octylsulfonyl]pyridine N-oxide]",–,–,–,> 0.8,0.7,> 0.8,0.0,–,0.0,–,–,–
CC(C)c1ccc(C(C)C)c(CS(=O)(=O)c2cccc[n+]2[O-])c1 [Compound 35],≧4 ug/ml,3.2,≧4 ug/ml,–,–,–,37.5,–,37.5,–,–,–
O=S(=O)(Cc1cc2c(cc1Cl)OCO2)c1cccc[n+]1[O-] [Compound 21],6.3 µg/mL,10.0,11.70 µg/mL,–,–,–,–,–,–,–,–,–
O=[N+]([O-])c1ccccc1CS(=O)(=O)c1cccc[n+]1[O-] [Compound 42],≧4 ug/ml,>5,8.00 µg/mL,–,–,–,37.5,10.0,–,–,–,–
"Cc1ccc(C)c(C(C)Sc2cc(C)c3ccccc3n2)c1 (centres unmarked) [Compound 162, 2-[[1-(2,5dimethylphenyl)ethyl]thio]-4-methyl-Quinoline]",–,–,–,–,–,–,0.0,–,0.0,> 0.16,1.6,> 0.8
O=S(=O)(Cc1cccs1)c1cccc[n+]1[O-] [Compound 8],>20 µg/mL,11.0,>20 µg/mL,–,–,–,0.0,–,0.0,–,–,–
N#Cc1ccc(CS(=O)(=O)c2cccc[n+]2[O-])cc1 [Compound 34],10.0 µg/mL,>20,9.00 µg/mL,–,–,–,–,10.0,–,–,–,–
O=S(=O)(Cc1cccc(Br)c1)c1cccc[n+]1[O-] [Compound 38],≧4 ug/ml,5.0,2.50 µg/mL,–,–,–,37.5,–,–,–,–,–
O=S(=O)(Cc1ccccc1Cl)c1cccc[n+]1[O-] [Compound 15],7.0 µg/mL,5.0,6.00 µg/mL,–,–,–,–,–,–,–,–,–

# Now from value to compound, other results behind:
EC50 (ug/ml) HIV-2 (HIV-2 (ROD); [1]),Antiviral EC50 (ug/ml) Davis strain CMV (Davis strain CMV; [2]) [µg/mL],EC50 (ug/ml) HIV-1 (HIV-1 (IIIB); [1]),EC50 (HIV-2 (ROD); [1]) [µg/mL],EC50 (Davis strain CMV; [3]) [µg/mL],EC50 (HIV-1 (IIIB); [1]) [µg/mL],SMILES,HIV-2 % Protection (HIV-2 (ROD)) [%],Antiviral % Inhibition Davis strain CMV (Davis strain CMV; HEL cells) [%],HIV-1 % Protection (HIV-1 (IIIB)) [%],EC50 (HIV-2 (ROD)) [µg/mL],"EC50 (Davis strain CMV; Human betaherpesvirus 5, HEL, 168 h) [µg/mL]",EC50 (HIV-1 (IIIB)) [µg/mL]
2.5 µg/mL,5.0,3.10 µg/mL,–,–,–,Cc1cc(CS(=O)(=O)c2cccc[n+]2[O-])ccc1[N+](=O)[O-] [Compound 66],–,–,–,–,–,–
≧20 ug/ml,40.0,2.30 µg/mL,–,–,–,O=[N+]([O-])c1ccc[n+]([O-])c1SCc1ccccc1 [Compound 146],37.5,–,–,–,–,–
>20.00 µg/mL,>20,>20 µg/mL,–,–,–,[O-][n+]1cc(Cl)ccc1SCc1ccccc1 [Compound 151],0.0,20.0,0.0,–,–,–
–,–,–,> 100,34.5,0.42,"Cc1ccc(C)c(C(Cl)S(=O)(=O)c2cc(C)cc[n+]2[O-])c1 (centres unmarked) [Compound 74, 2-[(2,5-dimethylphenyl)chloromethylsulfonyl]-4-methylpyridine-1-oxide]",0.0,–,–,–,–,–
>100 µg/mL,>50,16.00 µg/mL,–,–,–,CN1CCCCC1CSc1cccc[n+]1[O-] (racemic) [Compound 156],0.0,0.0,–,–,–,–
–,–,–,> 0.8,4.3,> 0.8,"CC(c1ccccc1)[S+]([O-])c1cccc[n+]1[O-] (centres unmarked) [Compound 102, 2-(1-Phenylethylsulfinyl)pyridine N-oxide]",0.0,–,0.0,–,–,–
>100.0 µg/mL,50.0,>20 µg/mL,–,–,–,COc1ccc(CSc2cc(CC(C)C)cc[n+]2[O-])cc1 [Compound 134],0.0,–,0.0,–,–,–
5.0 µg/mL,10.0,5.50 µg/mL,–,–,–,CCc1ccc(CS(=O)(=O)c2cccc[n+]2[O-])cc1 [Compound 59],–,–,–,–,–,–
>4.0 µg/mL,4.7,1.50 µg/mL,–,–,–,[O-][n+]1cccc(Cl)c1[S+]([O-])Cc1ccccc1 (centres unmarked) [Compound 136],0.0,–,–,–,–,–
20.0 µg/mL,>50,3.25 µg/mL,–,–,–,Cc1ccc(C)c(CS(=O)(=O)c2ccccn2)c1 [Compound 150],–,20.0,–,–,–,–
>100 µg/mL,>50,3.25 µg/mL,–,–,–,Cc1ccc(C)c(C(C)[S+]([O-])c2ccccn2)c1 (centres unmarked) [Compound 163],0.0,0.0,–,–,–,–
7.0 µg/mL,>20,≧4 ug/ml,–,–,–,Cc1cc[n+]([O-])c([S+]([O-])Cc2ccc(Cl)cc2)c1 (centres unmarked) [Compound 128],–,40.0,37.5,–,–,–
16.0 µg/mL,20.0,9.00 µg/mL,–,–,–,[O-][n+]1c(Cl)cccc1SCc1ccccc1 [Compound 149],–,–,–,–,–,–
>4.0 µg/mL,12.0,3.40 µg/mL,–,–,–,Cc1ccc[n+]([O-])c1S(=O)(=O)Cc1ccccc1Cl [Compound 117],0.0,–,–,–,–,–
